Source: patent US9902741
Where two headings read alike, the source gives them in different places.

Conditions: 14-membered ring, Cs2CO3, DMF, 85.0 °C
[1] = from O=C(NC[C@H](O)CCl)c1cnn2ccc(N3CC(F)(F)CC3c3cc(F)ccc3O)nc12, ether bond, 20.0 mM

Row | SMILES | ring closure, isolated yield (from N—((S)-3-chloro-2-hydroxypropyl)-5-4R)-2-(5-fluoro-2-oxo-1,2-dihydropyridin-3-yl)pyrrolidin-1-yl)pyrazolo[1,5-a]pyrimidine-3-carboxamide hydrochloride, other bond, […]) | ring closure, isolated yield [1]
1 | O=C1NC[C@H](O)Cn2cc(F)cc(c2=O)[C@H]2CCCN2c2ccn3ncc1c3n2 | 12% | 
2 | O=C1NC[C@H](O)COc2ccc(F)cc2C2CC(F)(F)CN2c2ccn3ncc1c3n2 (single isomer, unassigned; diastereomer 1) |  | 20%
3 | O=C1NC[C@H](O)COc2ccc(F)cc2C2CC(F)(F)CN2c2ccn3ncc1c3n2 (single isomer, unassigned; diastereomer 2) |  | 24%
